One test has as its system HCC827TR16. Put plainly: Cell growth inhibition by SRB method. The test is classed as cell-based. As to conditions: Homo sapiens, Tarceva-resistant line, 72 hrs exposure. The source says:
Six human cancer cell lines have been used to evaluate effects of the compounds on proliferation of cancer cells. These cell lines include HCC827-P (or HCC827 parent cells), human non-small lung cancer cells, Parent NSCLC HCC827 cell line (which harbors EGFR gene amplification, Exon 19 (E19) deletion, and Exon 21 mutation (Wang, Ramakrishnan et al. 2010), and is an EGFRi sensitive cell line (Kim, Kim et al. 2010)); HCC827-TR16 (Tarceva-resistant HCC727 cell line), HCC827-OR16 (AZD9291-resistant HCC727 cell line), LNCaP (human prostate cancer cells—a hormonal-therapy sensitive cell line (Wang, Liu et al. 1997)); 22RV1 (human prostate cancer cells—a hormonal-therapy resistant cell line (Sramkoski, Pretlow et al. 1999)); and ACHN (human renal adenocarcinoma cells (Park, Jung et al. 2003)). LNCaP cells and 22RV1 cells were purchased from the American Type Culture Collection (Rockville, Md.) and others were gifts of friends.
To evaluate activities of new compounds on growth of EGFR-inhibitor-resistant cells, two EGFRi-resistant cell lines, i.e., HCC827-TR16 and HCC827-OR16 were established using a method described by Eberlein et al. (Eberlein, Stetson et al. 2015). […] Resistant cells were collected and stabilized after 5 weeks (cycle 5). […] The resistant cells were sorted using 96-well dishes by culturing cells with density of 0.1, 1, 10, and 100 cells per well.
All cell lines were maintained in RPMI-1640 (GIBCO, Gaithersburg, Md.) with 10% heat-inactivated bovine serum (FBS) (Wang, Ossowski et al. 2004).
Sulforhodamine B (SRB) was used to estimate cell growth as described previously (Skehan, Storeng et al. 1990). Briefly, cells grown exponentially were aliquoted into 96-well plates at a density of 2,500 to 5,000 cells/200 μl per well in RPMI 1640 medium containing 10% FBS. After twenty-four hours, the cells were exposed to indicated concentrations of tested compounds for 72 hrs or otherwise as indicated. The cells were then fixed with 10% trichloride acetic acid for 2 h at 4° C. The 10% trichloride acetic acid was removed, and the dishes were washed 5 times with tape water, and air-dried. The fixed and dried cells were then stained with 0.4% SRB in 1% acetic acid for 25 min, and the dishes were washed 5 times with 1% acetic acid and air-dried overnight. 200 μl of 10 mM of Tris buffer (pH 10.0) were added, and the dishes were rotated to completely dissolve the color. Absorbance at 570 nm, with a reference wavelength 690 nm, was measured on a 96-well microplate reader (SPECTRO Star^Nano, BMG Labtech). Mean, standard deviation (SD) and the percent of growth inhibition at each concentration point of the treatment were calculated. The percent of growth inhibition as defined as (1−T/C)×100 where T is the mean of the absorbance at 570 nm from the treatment, and C from control (drug vehicle only). IC50 was calculated using Sigma-plot software by regression of growth-concentration curve from each drug treatment.

The subject of another test is HCC827-OR16. Put plainly: qRT-PCR expression of p21. The note with it: HCC827-OR16, 24 h, q-RT-PCR. The test is classed as cell-based, human. As for the experimental part:
FIG. 10 depicts the effect of Reno647 on expressions of Caspase 3, Caspase 9 and p21 in HCC827-P and on Box, Bcl2, p53 and p21 in HCC827-OR16 cells. […] Total cellular RNA was extracted and cDNA was prepared followed by qRT-PCR using specific probes as described in the section of Materials and Methods. Tgene ΔCt value was normalized for GAPDH by calculating ΔCt=Ctgene−CtGAPDH per sample.
(§1) HCC827 P or other indicated cells at exponential growth phase were treated with indicated concentrations of compounds for 24 hours. Total cellular RNA was prepared from lysed tumor cells using an RNA Purification kit (ThermoFisher Scientific). The first-strand of cDNA was synthesized using a High Capacity cDNA reverse transcription kit (ThermoFisher Scientific) in PTC-100 Peltier Thermal Cycler PCR. The resultant cDNA (0.5-1 μL) was used in a 10 μl reaction by using Taqman Universal PCR Master Mix (ThermoFisher Scientific). The pre-designed primers and probe were purchased from Life Technologies and used for qPCR. Human GAPDH was used as an internal control. qPCR was performed using Applied Biosystems StepOne and StepOnePlus Real-Time PCR Systems according manufacturer's instructions. An initial PCR denaturation step was performed at 95° C. for 20 seconds. […]
On the technique in general: Real-time PCR tracks product formation cycle by cycle.

A further test concerns PD-L1. Put plainly: qRT-PCR expression of PD-L1 in HCC827-P cells. The test is classed as cell-based, human. As to conditions: 1 μM, 24 hrs. As to the method: FIG. 11 depicts the effects of Reno647 on expression of PD-L1 in HCC827-P and HCC827-TR cells. HCC827-P and HCC827-TR cells at exponential growth phase were exposed to indicated concentration of Reno647 for 24 hrs. Total cellular RNA was extracted and cDNA was prepared followed by qRT-PCR using specific probes for PD-L1 and GAPDH (internal control) as described in the section of Materials and Methods. Tgene ΔCt value was normalized for GAPDH by calculating ΔCt=Ctgene−CtGAPDH per sample.
as §1

The IC50 is the point on the concentration scale where inhibition reaches its midpoint.

In the case of `C#Cc1cccc(Nc2ncnc3cc(OCCOC)c(NC(=O)c4ccc(F)c([N+](=O)[O-])c4)cc23)c1` [Reno647, 4-Fluoro-N-[4-(3-ethynyl-phenylamino)-7-(2-methoxy-ethoxy)-quinazolin-6-yl]-3-nitro-benzamide], in the test on HCC827TR16, the IC50 stood at 1300 nM. In the test on HCC827-OR16, the p21 expression result is reported as “significant induction”. Moreover, the “reduction of PD-L1 expression” value in the test with PD-L1 is listed as “Over 93%”.

The record behind these values is patent US20190169134A1, “NOVEL CLASS OF QUINOLONE HETEROCYCLIC AROMATIC MOLECULES FOR CANCER TREATMENT” (RenoTarget Therapeutics, Inc., priority 2016, published 2019).
